Measured values reported in patent publication EP2845588A1, “PIN1 inhibitors for use in the prevention and/or treatment of theileriosis, and related applications” (Centre National de la Recherche Scientifique (CNRS), priority 2013, dated 2015).

Tests used:
[1] = test system: FBW7 and c-Jun mRNA in TBL3 cells; experiment: RT-qPCR of FBW7 and c-Jun mRNA in TBL3 cells; type: cell-based, bovine
Method: (§1) Total cellular RNAs were extracted using an RNeasy Plus Mini Kit (Qiagen, Hilden, Germany) and parasite RNAs were extracted using the classical Trizol Protocol. cDNA synthesis was performed with the Reverse Transcriptase Superscript III (Invitrogen, CA, USA).
(§2) Quantitative PCR amplification was performed in the ABI 7500 machine (Applied Biosystems, CA, USA) using the Sybr Green reagent (Applied Biosystems, CA, USA) using the primers listed in Table 5 below. The detection of a single product was verified by dissociation curve analysis. Relative quantities of mRNA were analyzed using the delta Ct method. The βactin qPCR was used for normalization. Table 5: qPCR primers

[2] = test system: Parasite-infected TBL3 cells; experiment: Cell proliferation, live cell count after trypan blue exclusion, TBL3; type: cell-based, bovine; conditions: live cells counted after trypan blue exclusion
Method: (§3) All infected bovine cell lines used in this study were previously described: TBL3 cells were derived from in vitro infection of the spontaneous bovine-B lymphosarcoma cell line, BL3, with Hissar stock of T.annulata. The TpMD409 lymphocyte cell line are infected with T. parva. The culture conditions of these cell lines were previously described by Moreau et al., 1999. Cells were cultured in RPMI 1640 (Gibco-BRL, Paisley, UK), supplemented with 10% heat-inactivated Fetal calf serum, 4mM L-Glutamine, 25mM HEPES, 10µM β-mercaptoethanol and 100µg/ml penicillin/streptomycin in a humidified 5%CO2 atmosphere at 37°C. HepG2, NIH/3T3 and MEF cells lines were cultured in DMEM (Gibco-BRL, Paisley, UK), supplemented with 10% heat-inactivated Fetal calf serum, 4mM L-Glutamine, 25 mM HEPES, 10µM β-mercaptoethanol and 100µg/ml penicillin/streptomycin in a humidified 5% CO2 atmosphere at 37°C. Cell numbers, as judged by Trypan Blue exclusion test, were determined by counting cells using a Countess automated cell counter (Invitrogen, CA, USA). The anti-parasite drug Buparvaquone (BW720c) was used at 200ng/ml for 72 hours. BW720c has no effect on growth of uninfected cells. […]

TpMD409 cells = experiment: Soft agar colony forming assay, TpMD409; type: cell-based, bovine; conditions: colonies counted 10 days after plating
Method: as §3, with “HepG2, NIH/3T3 and MEF cells lines were cultured in DMEM (Gibco-BRL, Paisley, UK), supplemented with 10% heat-inactivated Fetal calf serum, 4mM L-Glutamine, 25 mM HEPES, 10µM β-mercaptoethanol and 100µg/ml penicillin/streptomycin in a humidified 5% CO2 atmosphere at 37°C.” left out, “USA).” for “USA). The anti-parasite drug Buparvaquone (BW720c) was used at 200ng/ml for 72 hours. BW720c has no effect on growth of uninfected cells.”
(§4) A two-layer soft agar culture system was used. […] Cultures were incubated in humidified 37°C incubators with an atmosphere of 5%CO2 in air, and control plates were monitored for growth using a microscope. At the time of maximum colony formation (10 days in culture), final colony numbers were counted manually after fixation a staining with 0.005% Crystal Violet (Sigma, Ref.: C3886).

[3] = test system: HIF1alpha transcriptional activity; experiment: HRE-Luciferase reporter assay; type: cell-based, bovine
Method: Bovine cells were transfected with the 5xHRE (Staller et al., 2003) or CyclinD1- (Wulf et al., 2001) Luciferase reporters, using electroporation (Neon kit, Invitrogen, CA, USA). Mouse cells were transfected using Lipofectamine 2000 (Invitrogen, CA, USA). Transfections efficiencies were normalized to Renilla activity by co-transfection of a pRL-TK Renilla reporter plasmid (Promega, Ref.: E6241). Luciferase assays were performed 36h post-transfection using the Dual-Luciferase Reporter Assay System (Promega, Ref: E1980) in a microplate luminometer. Relative luminescence was represented as the ratio Firefly/Renilla luminescence, compared with the corresponding empty vector control. The 5xHRE promoter-Luciferase construct was obtained from P Staller (Biotech Research & Innovation Centre, Copenhagen, […]).

[4] = test system: transcripts encoding glycolytic enzymes; experiment: Expression of transcripts encoding glycolytic enzymes in Theileria-infected cells; type: cell-based, bovine
Method: as §1, §2

[5] = test system: Parasite-infected TBL3 cells; experiment: Soft agar colony forming assay, TBL3; type: cell-based, bovine; conditions: colonies counted 10 days after plating
Method: as §3, with “HepG2, NIH/3T3 and MEF cells lines were cultured in DMEM (Gibco-BRL, Paisley, UK), supplemented with 10% heat-inactivated Fetal calf serum, 4mM L-Glutamine, 25 mM HEPES, 10µM β-mercaptoethanol and 100µg/ml penicillin/streptomycin in a humidified 5% CO2 atmosphere at 37°C.” left out, “USA).” for “USA). The anti-parasite drug Buparvaquone (BW720c) was used at 200ng/ml for 72 hours. BW720c has no effect on growth of uninfected cells.”
as §4

[6] = test system: non-parasitized BL3 cells; experiment: Cell proliferation, live cell count after trypan blue exclusion, BL3; type: cell-based, bovine; conditions: BL3 / uninfected cells
Method: All infected bovine cell lines used in this study were previously described: TBL3 cells were derived from in vitro infection of the spontaneous bovine-B lymphosarcoma cell line, BL3, with Hissar stock of T.annulata. The TpMD409 lymphocyte cell line are infected with T. parva. The culture conditions of these cell lines were previously described by Moreau et al., 1999. Cells were cultured in RPMI 1640 (Gibco-BRL, Paisley, UK), supplemented with 10% heat-inactivated Fetal calf serum, 4mM L-Glutamine, 25mM HEPES, 10µM β-mercaptoethanol and 100µg/ml penicillin/streptomycin in a humidified 5%CO2 atmosphere at 37°C. HepG2, NIH/3T3 and MEF cells lines were cultured in DMEM (Gibco-BRL, Paisley, UK), supplemented with 10% heat-inactivated Fetal calf serum, 4mM L-Glutamine, 25 mM HEPES, 10µM β-mercaptoethanol and 100µg/ml penicillin/streptomycin in a humidified 5% CO2 atmosphere at 37°C. Cell numbers, as judged by Trypan Blue exclusion test, were determined by counting cells using a Countess automated cell counter (Invitrogen, CA, USA). The anti-parasite drug Buparvaquone (BW720c) was used at 200ng/ml for 72 hours. BW720c has no effect on growth of uninfected cells.
Cells were treated with either Juglone at 5 µM resuspended in Ethanol (Sigma, St Louis, MO, Ref.: H47003), or PiB at 1 µM resuspended in DMSO (Sigma, Ref.: B7688), or Dimethyloxalylglycine DMOG at 0.5 mM resuspended in DMSO (Tebu-bio, MO, USA).

[7] = test system: Theileria parasites in TBL3-infected cells; experiment: Parasites quantification by DAPI staining in infected cells; type: cell-based, T.annulata; conditions: 72h, Buparvaquone 200ng/ml, Juglone 5 µM, PiB 1 µM
Method: All infected bovine cell lines used in this study were previously described: TBL3 cells were derived from in vitro infection of the spontaneous bovine-B lymphosarcoma cell line, BL3, with Hissar stock of T.annulata. The TpMD409 lymphocyte cell line are infected with T. parva. The culture conditions of these cell lines were previously described by Moreau et al., 1999. Cells were cultured in RPMI 1640 (Gibco-BRL, Paisley, UK), supplemented with 10% heat-inactivated Fetal calf serum, 4mM L-Glutamine, 25mM HEPES, 10µM β-mercaptoethanol and 100µg/ml penicillin/streptomycin in a humidified 5%CO2 atmosphere at 37°C. HepG2, NIH/3T3 and MEF cells lines were cultured in DMEM (Gibco-BRL, Paisley, UK), supplemented with 10% heat-inactivated Fetal calf serum, 4mM L-Glutamine, 25 mM HEPES, 10µM β-mercaptoethanol and 100µg/ml penicillin/streptomycin in a humidified 5% CO2 atmosphere at 37°C. Cell numbers, as judged by Trypan Blue exclusion test, were determined by counting cells using a Countess automated cell counter (Invitrogen, CA, USA). The anti-parasite drug Buparvaquone (BW720c) was used at 200ng/ml for 72 hours. BW720c has no effect on growth of uninfected cells. […] Images of immunofluoresence staining were photographed with a fluorescent microscope (Leica Inverted 6000) and the number of parasites per cells was counted. […]

[8] = test system: parasite-infected cells (Theileria annulata - TBL3); experiment: Cell viability XTT assay, TBL3; type: cell-based, bovine
Method: as §3

Row | SMILES | mRNA expression [1] | cell proliferation [2] | transformed phenotype, colonies in soft agar (TpMD409 cells) | HIF1alpha transcriptional activity [3] | expression of the transcripts encoding glycolytic enzymes [4] | transformed phenotype, colonies in soft agar [5] | proliferation of non-parasitized cells [6] | parasites in TBL3 cells [7] | host cell viability ([8]; PiB, infected cell line not given) | drug-induced decrease in glycolytic enzyme expression on overexpression of the TaPIN A53P mutant ([4]; overexpression of TaPIN A53P) | viability of parasite-infected cells ([8]; TBL3, 72h, XTT assay)
1 | CCOC(=O)CN1C(=O)c2ccc3c4c(ccc(c24)C1=O)C(=O)N(CC(=O)OCC)C3=O [PiB, benzo[Imn][3,8]phenanthroline-2,7-diacetic acid, 1,3,6,8-tetrahydro-1,3,6,8-tetraoxo-, diethyl ester] | no effect | affects TBL3 cell proliferation | reduced | reduced | reduced expression | reduced | no effect | eliminate parasites | reduced |  | 
2 | CC(C)(C)C1CCC(CC2=C(O)C(=O)c3ccccc3C2=O)CC1 (stereo not shown) [Buparvaquone, 2-((4-tert-butylcyclohexyl)methyl)-3-hydroxy-1,4-naphthoquinone] | no effect | reduced | reversed the transformed phenotype | reduced | reduced expression | reversed the transformed phenotype | no effect | eliminate parasites |  | reversed | decreased the viability
